Measurements: patent US10829520B2, “Beta-hairpin peptidomimetics” (POLYPHOR AG, priority 2015, dated 2020)
Where two headings read alike, the source gives them in different places. Where a SMILES comes first, the peptide text is derived from it. Bridges are numbered along the chain shown (N, C = ends). [ ]: non-standard residue; d: D form. Tle = CC(C)(C)[C@H](N)C(=O)O; NMeC = CN[C@@H](CS)C(=O)O; dDab = NCC[C@@H](N)C(=O)O; dPip = O=C(O)[C@H]1CCCCN1; Nle = CCCC[C@H](N)C(=O)O; Orn = NCCC[C@H](N)C(=O)O; Dab = NCC[C@H](N)C(=O)O; Dap = NC[C@H](N)C(=O)O; Sar = CNCC(=O)O

What was measured:
Format in all cases: cell-based
[1] = tested on: Klebsiella pneumoniae SSI #3010
How it was run: (§1)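 Minimal inhibitory concentrations were recorded in μg/mL after the strains grew 18-20 hours at 35° C with two-fold serial peptide dilutions. The medium was Mueller-Hinton II (cation-adjusted) with 0.002% Polysorbate 80, and the inoculum was about 10^6 CFU/mL.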

[2] = tested on: Acinetobacter baumannii DSM 30008
How it was run: as §1

[3] = tested on: Pseudomonas aeruginosa ATCC 27853
How it was run: as §1

[4] = tested on: Escherichia coli ATCC 25922
How it was run: as §1

[5] = tested on: Acinetobacter baumannii 872842
[6] = tested on: Escherichia coli 926415
[7] = tested on: Klebsiella pneumoniae 968733
[8] = tested on: human red blood cells (hRBC); assay: Hemolysis of human red blood cells
How it was run: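 hRBC washed 3× PBS; 20% v/v, ~0.9×10^9 cells/mL final. Peptide 100 μg/mL, 1 h, 37° C., 300 rpm. Spin, supernatant diluted 8×, OD540. 0% = PBS + 0.001% acetic acid; 100% = 2.5% Triton X-100. % hemolysis = OD540 peptide/OD540 full lysis × 100.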

[9] = red cells of human, 1 h, 100 μg/mL
[10] = clinical isolate, Mueller-Hinton II broth, P-80 0.002% present

Row | SMILES | Klebsiella pneumoniae SSI #3010 MIC ([1]; SSI #3010) [mg/L] | Acinetobacter baumannii DSM 30008 MIC ([2]; DSM 30008) [mg/L] | Pseudomonas aeruginosa ATCC 27853 MIC ([3]; ATCC 27853) [mg/L] | Escherichia coli ATCC 25922 MIC ([4]; ATCC 25922) [mg/L] | Acinetobacter baumannii 872842 MIC [5]; 872842 [mg/L] | Escherichia coli 926415 MIC [6]; 926415 [mg/L] | Klebsiella pneumoniae 968733 MIC [7]; 968733 [mg/L] | Hemolysis at 100 μg/mL ([8]; red cells of human, 1 h, 100) [%] | Hemolysis at 100 μg/mL [8, 9] [%] | Klebsiella pneumoniae SSI #3010 MIC ([1]; Mueller-Hinton II broth) [mg/L] | Acinetobacter baumannii DSM 30008 MIC ([2]; Mueller-Hinton II broth) [mg/L] | Pseudomonas aeruginosa ATCC 27853 MIC ([3]; Mueller-Hinton II broth) [mg/L] | Escherichia coli ATCC 25922 MIC ([4]; Mueller-Hinton II broth) [mg/L] | Acinetobacter baumannii 872842 MIC [5, 10] [mg/L] | Escherichia coli 926415 MIC [6, 10] [mg/L] | Klebsiella pneumoniae 968733 MIC [7, 10] [mg/L] | Hemolysis at 100 μg/mL ([8]; 100 μg/mL, 20% hRBC, 1 h at 37° C.) [%]
1 | CC(=O)N[C@@H](Cc1c[nH]c2ccccc12)C(=O)N[C@@H](CCN)C(=O)N[C@H](C(=O)N[C@H]1CC(=O)NCC[C@@H](C(=O)N[C@@H](Cc2ccc(O)cc2)C(=O)N[C@@H](CCN)C(=O)N[C@H](C(=O)N[C@@H](CCN)C(=O)N[C@@H](CCN)C(=O)N[C@@H](CCN)C(=O)N[C@H]2CCNC(=O)[C@H]([C@@H](C)O)NC(=O)[C@H](CCN)NC(=O)[C@H](CCN)NC(=O)[C@H](CC(C)C)NC(=O)[C@@H](Cc3ccccc3)NC(=O)[C@H](CCN)NC2=O)[C@@H](C)O)NC(=O)[C@H](C(C)C)NC(=O)[C@@H]2CCCN2C(=O)[C@H]2CCCN2C(=O)[C@H](Cc2c[nH]cn2)NC1=O)C(C)(C)C [Ex. 167] (Ac-W[Dab][Tle]DH[dP]PV[Dab]Y[Dab]T[Dab][Dab][Dab][Dab][Dab][dF]L[Dab][Dab]T; lactam 4-9, 16-C) | 0.25 | 0.5 | 0.125 | 0.25 | 1 | 1 | 2 | <1 |  |  |  |  |  |  |  |  | 
2 | CCCC[C@@H]1NC(=O)[C@@H]2CCCN2C(=O)[C@H]2CCCN2C(=O)[C@H](CO)NC(=O)[C@H](CO)NC(=O)[C@H](C(C)(C)C)NC(=O)[C@H](CCN)NC(=O)[C@H](Cc2c[nH]c3ccccc23)NC(=O)[C@@H](N)CSSC[C@@H](C(=O)N[C@H](Cc2c[nH]c3ccccc23)C(=O)N[C@@H](CCN)C(=O)N[C@H]2CCNC(=O)[C@H]([C@@H](C)O)NC(=O)[C@H](CCN)NC(=O)[C@H](CCN)NC(=O)[C@H](CC(C)C)NC(=O)[C@@H](Cc3ccccc3)NC(=O)[C@H](CCN)NC2=O)NC(=O)[C@H](CCCN)NC(=O)[C@H](CCN)NC(=O)[C@H](Cc2ccc(O)cc2)NC(=O)[C@H](CO)NC1=O [Ex. 202] (H-CW[Dab][Tle]SS[dP]P[Nle]SY[Dab][Orn]C[dW][Dab][Dab][Dab][dF]L[Dab][Dab]T; disulfide 1-14; lactam 17-C) | 1 | 1 | 1 | 0.25 | 0.5 | 0.5 | 2 |  | 2 |  |  |  |  |  |  |  | 
3 | CCCC[C@@H]1NC(=O)[C@@H]2CCCN2C(=O)[C@H]2CCCN2C(=O)[C@H](CO)NC(=O)[C@H](Cc2ccc(O)cc2)NC(=O)[C@H](C(C)(C)C)NC(=O)[C@H](CCN)NC(=O)[C@H](Cc2c[nH]c3ccccc23)NC(=O)[C@@H](NC)CSSC[C@@H](C(=O)N[C@H](CCN)C(=O)N[C@H]2CCNC(=O)[C@H]([C@@H](C)O)NC(=O)[C@H](CCN)NC(=O)[C@H](CCN)NC(=O)[C@H](CC(C)C)NC(=O)[C@@H](CC(C)C)NC(=O)[C@H](CCN)NC2=O)NC(=O)[C@H](CCCN)NC(=O)[C@H](CCN)NC(=O)[C@H](Cc2ccc(O)cc2)NC(=O)[C@H](CO)NC1=O [Ex. 207] (H-[NMeC]W[Dab][Tle]YS[dP]P[Nle]SY[Dab][Orn]C[dDab][Dab][Dab][dL]L[Dab][Dab]T; disulfide 1-14; lactam 16-C) | 0.125 | 2 | 2 | 0.125 | 1 | 0.25 | 0.5 |  | 1 |  |  |  |  |  |  |  | 
4 | CC(C)C[C@@H]1NC(=O)[C@@H](CC(C)C)NC(=O)[C@H](CCN)NC(=O)[C@@H](NC(=O)[C@H](CCN)NC(=O)CN(C)C(=O)[C@@H]2CSSC[C@H](N)C(=O)N[C@@H](Cc3c[nH]c4ccccc34)C(=O)N[C@@H](CCN)C(=O)N[C@@H](C(C)C)C(=O)N[C@H]3CSSC[C@H](NC(=O)[C@H](CC(C)C)NC(=O)[C@@H]4CCCN4C(=O)[C@H]4CCCN4C(=O)[C@H](Cc4ccc(O)cc4)NC3=O)C(=O)N[C@@H](Cc3ccc(O)cc3)C(=O)N[C@@H](CCN)C(=O)N[C@@H](CCCN)C(=O)N2)CCNC(=O)[C@H]([C@@H](C)O)NC(=O)[C@H](CCN)NC(=O)[C@H](CCN)NC1=O [Ex. 213] (H-CW[Dab]VCY[dP]PLCY[Dab][Orn]C[Sar][Dab][Dab][Dab][dL]L[Dab][Dab]T; disulfide 1-14, 5-10; lactam 17-C) |  |  |  |  |  |  |  |  |  | 0.5 | 0.5 | 0.5 | 0.125 | 0.5 | 0.5 | 1 | 3
5 | CC(C)C[C@@H]1NC(=O)[C@@H](Cc2ccccc2)NC(=O)[C@H](CCN)NC(=O)[C@@H](NC(=O)[C@H](CCN)NC(=O)[C@@H](NC(=O)[C@H](CCN)NC(=O)[C@@H]2CSSC[C@H](NC(=O)[C@@H](N)Cc3c[nH]c4ccccc34)C(=O)N[C@@H](C(C)(C)C)C(=O)N[C@@H](C)C(=O)N[C@@H](CO)C(=O)N3CCCC[C@@H]3C(=O)N3CCC[C@H]3C(=O)N[C@@H](CC(C)C)C(=O)N[C@@H](CO)C(=O)N[C@@H](Cc3ccc(O)cc3)C(=O)N2)[C@@H](C)O)CCNC(=O)[C@H]([C@@H](C)O)NC(=O)[C@H](CCN)NC(=O)[C@H](CCN)NC1=O [Ex. 114] (H-WC[Tle]AS[dPip]PLSYC[Dab]T[Dab][Dab][Dab][dF]L[Dab][Dab]T; disulfide 2-11; lactam 15-C) | 0.25 | 0.5 | 0.5 | 0.125 | 0.125 | 0.0625 | 0.5 |  | 6 |  |  |  |  |  |  |  | 
6 | CC(C)C[C@@H]1NC(=O)[C@H](CCN)NC(=O)[C@H]2CCCN2C(=O)[C@H](CO)NC(=O)[C@H](C)NC(=O)[C@H](C(C)C)NC(=O)[C@@H](NC(=O)[C@@H](N)Cc2c[nH]c3ccccc23)CSSC[C@@H](C(=O)N[C@@H](CCN)C(=O)N[C@@H](CCN)C(=O)N[C@H](C(=O)N[C@@H](CCN)C(=O)N[C@H]2CCNC(=O)[C@H]([C@@H](C)O)NC(=O)[C@H](CCN)NC(=O)[C@H](CCN)NC(=O)[C@H](CC(C)C)NC(=O)[C@@H](CC(C)C)NC(=O)[C@H](CCN)NC2=O)[C@@H](C)O)NC(=O)[C@H](Cc2ccc(O)cc2)NC(=O)[C@H](CO)NC1=O [Ex. 127] (H-WCVAS[dP][Dab]LSYC[Dab][Dab]T[Dab][Dab][Dab][dL]L[Dab][Dab]T; disulfide 2-11; lactam 16-C) | 0.25 | 0.25 | 0.5 | 1 | 0.25 | 2 | 8 |  | 1 |  |  |  |  |  |  |  | 
7 | CC(C)C[C@@H]1NC(=O)[C@@H](CC(C)C)NC(=O)[C@H](CCN)NC(=O)[C@@H](NC(=O)[C@H](CCN)NC(=O)[C@@H](CCN)NC(=O)[C@@H](NC(=O)[C@H](CCCN)NC(=O)[C@@H]2CSSC[C@H](NC(=O)[C@@H](N)Cc3c[nH]c4ccccc34)C(=O)N[C@@H](C(C)C)C(=O)N[C@@H](CO)C(=O)N[C@@H](CO)C(=O)N3CCC[C@@H]3C(=O)N[C@@H](Cc3ccc(O)cc3)C(=O)N[C@@H](C(C)C)C(=O)N[C@@H](CN)C(=O)N[C@@H](Cc3ccc(O)cc3)C(=O)N2)[C@@H](C)O)CCNC(=O)[C@H]([C@@H](C)O)NC(=O)[C@H](CCN)NC(=O)[C@H](CCN)NC1=O [Ex. 149] (H-WCVSS[dP]YV[Dap]YC[Orn]T[dDab][Dab][Dab][Dab][dL]L[Dab][Dab]T; disulfide 2-11; lactam 16-C) | 0.25 | 0.5 | 0.5 | 0.5 | 0.0625 | 0.125 | 0.5 |  | <1 |  |  |  |  |  |  |  | 
8 | CCCC[C@@H]1NC(=O)[C@@H]2CCCN2C(=O)[C@H]2CCCN2C(=O)[C@H](CO)NC(=O)[C@H](C)NC(=O)[C@H](C(C)(C)C)NC(=O)[C@H](CCN)NC(=O)[C@H](Cc2c[nH]c3ccccc23)NC(=O)[C@H](NC(C)=O)CSSC[C@@H](C(=O)N[C@@H](CCN)C(=O)N[C@H](C(=O)N[C@@H](CCN)C(=O)N[C@H]2CCNC(=O)[C@H]([C@@H](C)O)NC(=O)[C@H](CCN)NC(=O)[C@H](CCN)NC(=O)[C@H](CC(C)C)NC(=O)[C@@H](Cc3ccccc3)NC(=O)[C@H](CCN)NC2=O)[C@@H](C)O)NC(=O)[C@H](CCCN)NC(=O)[C@H](CCN)NC(=O)[C@H](Cc2ccc(O)cc2)NC(=O)[C@H](CO)NC1=O [Ex. 63] (Ac-[dC]W[Dab][Tle]AS[dP]P[Nle]SY[Dab][Orn]C[Dab]T[Dab][Dab][Dab][dF]L[Dab][Dab]T; disulfide 1-14; lactam 18-C) | 2 | 2 | 0.5 | 0.5 | 2 | 3 | 8 |  | <1 |  |  |  |  |  |  |  | 
